Test results taken from patent US9212171B2, “Ethynyl compounds” (Hoffmann-La Roche Inc., priority 2011, dated 2015).

Biological target: human mGlu5a receptor (Homo sapiens (Human), UniProt P41594)
Assay: Intracellular Ca2+ mobilization assay (mGlu5 PAM)
Format: cell-based
Details: for EC50: HEK-293 cells stably transfected with human mGlu5a, L-glutamate added at EC20 (typically around 80 μM); for Emax: maximal response in % of the maximal stimulatory effect obtained with saturating concentrations of L-glutamate, read-out: Eff. (%)
Method: A monoclonal HEK-293 cell line stably transfected with a cDNA encoding for the human mGlu5a receptor was generated; for the work with mGlu5 Positive Allosteric Modulators (PAMs), a cell line with low receptor expression levels and low constitutive receptor activity was selected to allow the differentiation of agonistic versus PAM activity. Cells were cultured according to standard protocols (Freshney, 2000) in Dulbecco's Modified Eagle Medium with high glucose supplemented with 1 mM glutamine, 10% (vol/vol) heat-inactivated bovine calf serum, Penicillin/Streptomycin, […] hygromycin and 15 μg/ml blasticidin (all cell culture reagents and antibiotics from Invitrogen, Basel, Switzerland).
About 24 hrs before an experiment, 5×10^4 cells/well were seeded in poly-D-lysine coated, black/clear-bottomed 96-well plates. The cells were loaded with 2.5 μM Fluo-4AM in loading buffer (1×HBSS, 20 mM HEPES) for 1 hr at 37° C. and washed five times with loading buffer. The cells were transferred into a Functional Drug Screening System 7000 (Hamamatsu, Paris, France), and 11 half logarithmic serial dilutions of test compound at 37° C. were added and the cells were incubated for 10-30 min. with on-line recording of fluorescence. Following this pre-incubation step, the agonist L-glutamate was added to the cells at a concentration corresponding to EC20 (typically around 80 μM) with on-line recording of fluorescence; in order to account for day-to-day variations in the responsiveness of cells, the EC20 of glutamate was determined immediately ahead of each experiment by recording of a full dose-response curve of glutamate.
Responses were measured as peak increase in fluorescence minus basal (i.e. fluorescence without addition of L-glutamate), normalized to the maximal stimulatory effect obtained with saturating concentrations of L-glutamate. Graphs were plotted with the % maximal stimulatory using XLfit, a curve fitting program that iteratively plots the data using Levenburg Marquardt algorithm. The single site competition analysis equation used was y=A+((B−A)/(1+((x/C)D))), where y is the % maximal stimulatory effect, A is the minimum y, B is the maximum y, C is the EC50, x is the log 10 of the concentration of the competing compound and D is the slope of the curve (the Hill Coefficient). From these curves the EC50 (concentration at which half maximal stimulation was achieved), the Hill coefficient as well as the maximal response in % of the maximal stimulatory effect obtained with saturating concentrations of L-glutamate were calculated.
A depression of the signal observed after addition of the EC20 concentration of L-glutamate was indicative of an inhibitory activity of the test compound.

Chain of human mGlu5a receptor (P41594 other isoform, or with tags, fused parts or gaps): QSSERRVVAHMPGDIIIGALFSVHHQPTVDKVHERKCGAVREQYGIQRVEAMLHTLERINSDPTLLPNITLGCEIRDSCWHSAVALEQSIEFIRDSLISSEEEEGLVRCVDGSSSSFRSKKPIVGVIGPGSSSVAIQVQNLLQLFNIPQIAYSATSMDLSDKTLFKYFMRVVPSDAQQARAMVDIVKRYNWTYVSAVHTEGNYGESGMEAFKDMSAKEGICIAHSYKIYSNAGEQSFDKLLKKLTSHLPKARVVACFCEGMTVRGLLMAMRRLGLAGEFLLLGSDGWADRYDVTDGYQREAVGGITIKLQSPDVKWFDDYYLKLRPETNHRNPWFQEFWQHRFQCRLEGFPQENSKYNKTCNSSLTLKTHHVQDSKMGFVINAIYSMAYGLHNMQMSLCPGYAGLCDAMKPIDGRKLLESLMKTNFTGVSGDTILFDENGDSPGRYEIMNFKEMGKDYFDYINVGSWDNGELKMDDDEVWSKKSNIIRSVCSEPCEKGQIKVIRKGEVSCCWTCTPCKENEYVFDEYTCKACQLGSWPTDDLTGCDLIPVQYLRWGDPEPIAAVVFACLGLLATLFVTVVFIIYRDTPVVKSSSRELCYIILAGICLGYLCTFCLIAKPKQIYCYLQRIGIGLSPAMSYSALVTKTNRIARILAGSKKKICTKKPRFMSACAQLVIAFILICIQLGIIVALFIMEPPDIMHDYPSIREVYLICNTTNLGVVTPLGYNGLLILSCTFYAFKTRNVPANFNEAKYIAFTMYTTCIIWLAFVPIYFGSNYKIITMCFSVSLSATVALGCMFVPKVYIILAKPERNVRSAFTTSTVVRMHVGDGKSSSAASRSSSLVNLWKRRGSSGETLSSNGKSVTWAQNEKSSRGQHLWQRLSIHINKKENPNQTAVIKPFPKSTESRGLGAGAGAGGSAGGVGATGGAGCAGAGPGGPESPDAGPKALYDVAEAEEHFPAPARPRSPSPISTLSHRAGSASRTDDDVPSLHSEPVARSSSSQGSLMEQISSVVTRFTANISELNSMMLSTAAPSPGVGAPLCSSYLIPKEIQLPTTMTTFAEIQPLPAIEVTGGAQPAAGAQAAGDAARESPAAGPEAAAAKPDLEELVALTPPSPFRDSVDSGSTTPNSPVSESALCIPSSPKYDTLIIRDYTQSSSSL

Row | SMILES | EC50 [nM] | Emax [%]
1 | CN1C(=O)[C@@H](c2ncc(C#Cc3ccccc3)cn2)[C@@H]2CCC[C@@H]21 (racemic) [Example 33, (3RS,3aSR,6aSR)-1-Methyl-3-(5-phenylethynyl-pyrimidin-2-yl)-hexahydro-cyclopenta[b]pyrrol-2-one] | 52 | 52
2 | COC1(c2ccc(C#Cc3ccccc3)cn2)CC(C)(C)N(C)C1=O (racemic) [Example 19, (RS)-3-Methoxy-1,5,5-trimethyl-3-(5-(phenylethynyl)pyridin-2-yl)pyrrolidin-2-one] | 96 | 108
3 | CN1C(=O)[C@H](c2ccc(C#Cc3ccccc3)cn2)[C@H]2CCCC[C@H]21 [Example 37, (3S,6R,7R)-1-Methyl-3-(5-phenylethynyl-pyridin-2-yl)-octahydro-indol-2-one] | 84 | 49
4 | CN1C(=O)[C@H](c2ccc(C#Cc3cccc(F)c3)cn2)[C@@H]2CCCC[C@@H]21 (racemic) [Example 39, (3SR,6SR,7SR)-3-[5-(3-Fluoro-phenylethynyl)-pyridin-2-yl]-1-methyl-octahydro-indol-2-one] | 141 | 61
5 | CN1C(=O)C(c2ccc(C#Cc3ccccc3)cn2)CCC1(C)C (racemic) [Example 12, (RS)-1,6,6-Trimethyl-3-(5-(phenylethynyl)pyridin-2-yl)piperidin-2-one] | 113 | 103
6 | CN1C(=O)[C@H](c2ccc(C#Cc3ccc(F)cc3)cn2)[C@H]2CCCC[C@H]21 [Example 43, (3S,6R,7R)-3-[5-(4-fluoro-phenylethynyl)-pyridin-2-yl]-1-methyl-octahydro-indol-2-one] | 146 | 53
7 | CN1CCCCC(c2ccc(C#Cc3cccc(F)c3)cn2)C1=O (racemic) [Example 24, (RS)-3-[5-(3-Fluoro-phenylethynyl)-pyridin-2-yl]-1-methyl-azepan-2-one] | 39 | 69
8 | CN1C(=O)C(C(=O)OCc2ccccc2)(c2ncc(C#Cc3ccccc3)cn2)CC1(C)C (racemic) [Example 5, (RS)-Benzyl 1,5,5-trimethyl-2-oxo-3-(5-(phenylethynyl)pyrimidin-2-yl)pyrrolidine-3-carboxylate] | 528 | 48
9 | CN1C(=O)[C@@H](c2ccc(C#Cc3cccc(F)c3)cn2)[C@@H]2CCCC[C@@H]21 [Example 40, (3R,6S,7S)-3-[5-(3-Fluoro-phenylethynyl)-pyridin-2-yl]-1-methyl-octahydro-indol-2-one] | 89 | 68
10 | CN1C(=O)C(C)(c2ccc(C#Cc3ccccc3)cn2)CC1(C)C (racemic) [Example 20, (RS)-1,3,5,5-Tetramethyl-3-(5-(phenylethynyl)pyridin-2-yl)pyrrolidin-2-one] | 90 | 109
11 | CN1C(=O)[C@@H](c2ccc(C#Cc3ccccc3)cn2)[C@@H]2CCCC[C@@H]21 (racemic) [Example 34, (3RS,6SR,7SR)-1-Methyl-3-(5-phenylethynyl-pyridin-2-yl)-octahydro-indol-2-one] | 185 | 82
12 | CN1C(=O)[C@H](c2ccc(C#Cc3ccnc(Cl)c3)cn2)CC1(C)C (single isomer, unassigned) [Example 46, (R) or (S)-3-[5-(2-Chloro-pyridin-4-ylethynyl)-pyridin-2-yl]-1,5,5-trimethyl-pyrrolidin-2-one] | 103 | 40
13 | CN1C(=O)[C@@H](c2ccc(C#Cc3ccc(F)cc3)cn2)[C@@H]2CCC[C@@H]21 (racemic) [Example 29, (3RS,3aSR,6aSR)-3-[5-(4-Fluoro-phenylethynyl)-pyridin-2-yl]-1-methyl-hexahydro-cyclopenta[b]pyrrol-2-one] | 78 | 53
14 | CN1C(=O)C(c2ccc(C#Cc3ccccc3)nn2)CC1(C)C (racemic) [Example 11, (RS)-1,5,5-trimethyl-3-(6-(phenylethynyl)pyridazin-3-yl)pyrrolidin-2-one] | 58 | 115
15 | CN1C(=O)[C@@H](c2ccc(C#Cc3ccccc3)cn2)[C@@H]2CCCC[C@@H]21 [Example 36, (3R,6S,7S)-1-Methyl-3-(5-phenylethynyl-pyridin-2-yl)-octahydro-indol-2-one] | 84 | 92
16 | CN1C(=O)[C@H](c2ccc(C#Cc3cccc(F)c3)cn2)[C@H]2CCC[C@H]21 (single isomer, unassigned) [Example 32, (3S,3aR,6aR) or (3R,3aS,6aS)-3-[5-(3-Fluoro-phenylethynyl)-pyridin-2-yl]-1-methyl-hexahydro-cyclopenta[b]pyrrol-2-one] | 48 | 68
17 | CN1C(=O)C(c2ccc(C#Cc3cccc(Cl)c3)cn2)CC1(C)C (racemic) [Example 3, (RS)-3-(5-((3-chlorophenyl)ethynyl)pyridin-2-yl)-1,5,5-trimethylpyrrolidin-2-one] | 38 | 81
18 | CN1C(=O)C(c2ccc(C#Cc3ccccc3)cn2)CC1(C)C (racemic) [Example 1, (RS)-1,5,5-Trimethyl-3-(5-(phenylethynyl)pyridin-2-yl)pyrrolidin-2-one] | 60 | 111
19 | CN1C(=O)C(c2ncc(C#Cc3ccc(F)cc3)cn2)CCC1(C)C (racemic) [Example 16, (RS)-3-(5-((4-Fluorophenyl)ethynyl)pyrimidin-2-yl)-1,6,6-trimethylpiperidin-2-one] | 573 | 96
20 | CN1C(=O)C(c2ncc(C#Cc3cccc(F)c3)cn2)CC1(C)C (racemic) [Example 7, (RS)-3-(5-((3-fluorophenyl)ethynyl)pyrimidin-2-yl)-1,5,5-trimethylpyrrolidin-2-one] | 137 | 85
21 | CN1C(=O)[C@@H](c2ccc(C#Cc3cccc(F)c3)cn2)[C@@H]2CCC[C@@H]21 (racemic) [Example 30, (3RS,3aSR,6aSR)-3-[5-(3-Fluoro-phenylethynyl)-pyridin-2-yl]-1-methyl-hexahydro-cyclopenta[b]pyrrol-2-one] | 33 | 57
22 | CN1C(=O)[C@@H](c2ccc(C#Cc3cccc(F)c3)cn2)[C@@H]2CCCC[C@@H]21 (racemic) [Example 38, (3RS,6SR,7SR)-3-[5-(3-Fluoro-phenylethynyl)-pyridin-2-yl]-1-methyl-octahydro-indol-2-one] | 69 | 60
23 | CN1C(=O)C(c2ncc(C#Cc3cccc(F)c3)cc2F)CC1(C)C (racemic) [Example 21, (RS)-3-(3-fluoro-5-((3-fluorophenyl)ethynyl)pyridin-2-yl)-1,5,5-trimethylpyrrolidin-2-one] | 188 | 91
24 | CN1C(=O)C(c2ccc(C#Cc3ccc(F)cc3)nn2)CC1(C)C (stereo not shown) [Example 10, 3-(6-((4-fluorophenyl)ethynyl)pyridazin-3-yl)-1,5,5-trimethylpyrrolidin-2-one] | 247 | 99
25 | CN1C(=O)C(c2ccc(C#Cc3cccc(F)c3)cn2)CCC1(C)C (racemic) [Example 13, (RS)-3-(5-((3-Fluorophenyl)ethynyl)pyridin-2-yl)-1,6,6-trimethylpiperidin-2-one] | 98 | 90
26 | CN1C(=O)C(c2ncc(C#Cc3ccccc3)cn2)CCC1(C)C (racemic) [Example 15, (RS)-1,6,6-Trimethyl-3-(5-(phenylethynyl)pyrimidin-2-yl)piperidin-2-one] | 179 | 91
27 | CN1C(=O)C(c2ncc(C#Cc3ccccc3)cn2)CC1(C)C (racemic) [Example 6, (RS)-1,5,5-Trimethyl-3-(5-(phenylethynyl)pyrimidin-2-yl)pyrrolidin-2-one] | 130 | 90
28 | CN1CCCCC(c2ccc(C#Cc3ccccc3)cn2)C1=O (racemic) [Example 22, (RS)-1-Methyl-3-(5-phenylethynyl-pyridin-2-yl)-azepan-2-one] | 59 | 59
29 | CN1C(=O)C(c2ccc(C#Cc3cccc(F)c3)nn2)CC1(C)C (racemic) [Example 9, (RS)-3-(6-((3-Fluorophenyl)ethynyl)pyridazin-3-yl)-1,5,5-trimethylpyrrolidin-2-one] | 34 | 88
